According to US20180221352A1, “3-(1H-PYRROLO[2,3-C]PYRIDIN-2-YL)-1H-PYRAZOLO[3,4-B]PYRIDINES AND THERAPEUTIC USES THEREOF” (Samumed, LLC, priority 2015, published 2018):

Columns and labels:
Type in all cases: cell-based
SW480 colon cancer cells = experiment: Cell viability assay (CellTiter-Blue); settings: Homo sapiens; for EC50: 96 h, SW480 cell viability, four days; for inhibition at 10 µM: SW480, 96 h, read-out: percent inhibition at 10 μM
Description: Representative compounds were screened using the following assay procedure to assess the effect on cell viability as described below.
Approximately 2×10^3 SW480 colon cancer cells were seeded into each well and allowed to incubate in the presence or absence of compound for four days at 37° C./5% CO2. Eight replicates of DMSO-treated cells served as controls and cells treated with compound were performed in duplicate.
After incubation, 20 μL of CellTiter-Blue (Promega) was added to each well allowed to incubate for approximately 3 hours. This reagent was a buffered solution which contains resazurin, metabolically active cells were able to reduce rezarurin (blue) into resorufin (pink) which was highly fluorescent. This measured fluorescence was used as a readout for cell viability.

[1] = tested on: primary human fibroblasts derived from IPF patients (LL29 cells); experiment: Inhibition of fibrotic process, αSMA staining in TGF-β1 treated fibroblasts; settings: Fibroblast; for EC50: 96 h, LL29 cells, TGF-β1 20 ng/mL, 4 days, % αSMA positive cells; for inhibition at 10 µM: read-out: percent inhibition at 10 μM
Description: Representative compounds were screened using primary human fibroblasts (derived from IPF patients) treated with TGF-β1 to determine their ability to inhibit the fibrotic process.
LL29 cells are plated at 1,500 cells/well in 80 μL/well F12 medium supplemented with 1% Fetal Bovine Serum. […] Wells treated with TGF-31 and containing DMSO were used as controls. […] Following incubation for 4 days, SYTOX green nucleic acid stain (Life Technologies [Thermo Fisher Scientific]) was added to the wells at a final concentration of 1 μM and incubated at room temperature for 30 min.

[2] = tested on: Wnt activity (Sp5-Luc reporter, SW480 colon carcinoma cells); experiment: Wnt activity screening assay, Sp5-Luc reporter gene in SW480 cells; settings: Homo sapiens; for inhibition at 10 µM: SW480, read-out: percent inhibition at 10 μM; for EC50: Sp5-Luc reporter, SW480 cells, overnight incubation
From the text: The screening assay for Wnt activity is described as follows. Reporter cell lines can be generated by stably transducing cancer cell lines (e.g., colon cancer) or primary cells (e.g., IEC-6 intestinal cells) with a lentiviral construct that includes a Wnt-responsive promoter driving expression of the firefly luciferase gene.
SW480 colon carcinoma cells were transduced with a lentiviral vector expressing luciferase with a human Sp5 promoter consisting of a sequence of eight TCF/LEF binding sites. SW480 cells stably expressing the Sp5-Luc reporter gene and a hygromycin resistance gene were selected by treatment with 150 μg/mL of hygromycin for 7 days. These stably transduced SW480 cells were expanded in cell culture and used for all further screening activities. […] For Sp5-Luc reporter gene assays, the cells were plated at 4,000 cells/well in 384-well plates with medium containing 1% fetal bovine serum and incubated overnight at 37° C. and 5% CO2. Following incubation, 20 μl of BrightGlo luminescence reagent (Promega) was added to each well of the 384-well assay plates. The plates were placed on an orbital shaker for 2 min and then luminescence was quantified using the Envision (Perkin Elmer) plate reader. Readings were normalized to DMSO only treated cells, and normalized activities were utilized for EC50 calculations using the dose-response log (inhibitor) vs. response−variable slope (four parameters) nonlinear regression feature available in GraphPad Prism 5.0 (or Dotmatics).

IL-6 = IL-6 inhibition in LPS-stimulated THP-1 cells (HTRF); settings: Homo sapiens; for inhibition at 10 µM: THP-1, read-out: percent inhibition at 10 μM; for EC50: THP-1 cells, LPS 500 ng/mL, 22 hours, IL6 HTRF
Description: THP-1 cells were cultured in basal media with 1% FBS for 24 hours before the start of the assay. […] THP-1 cells were plated at 5000 cells/well in the 384-well plates and incubated at 37° C. for 2 h. 500 ng/mL of LPS was added after 2 hours and cells were incubated for another 22 hours at 37° C. Plates were spun in a centrifuge for 1 minute at […] and a mixture of anti-IL6 XL665, and anti-IL6 Cryptate diluted in reconstitution buffer (Cisbio Inc.) was added to each well. Following incubation for 3 hrs at room temperature, Homogeneous Time-Resolved Fluorescence (HTRF) was measured using the Envision (Perkin Elmer) at 665 nm and […]. The ratio of fluorescence at 665 nm to 620 nm was used as a readout for IL6 quantification. All samples were processed in duplicate. Readings were normalized to DMSO treated cells and normalized activities were utilized for EC50 calculations using the dose-response log (inhibitor) vs. response−variable slope (four parameters) nonlinear regression feature available in GraphPad Prism 5.0 (or Dotmatics).

| SMILES | EC50 (SW480 colon cancer cells) | EC50 [1] | inhibition at 10 µM [1] | inhibition at 10 µM [2] | EC50 [2] | inhibition at 10 µM (IL-6) | EC50 (IL-6) | inhibition at 10 µM (SW480 colon cancer cells) |
| --- | --- | --- | --- | --- | --- | --- | --- | --- |
| Fc1ccc(-c2cncc3[nH]c(-c4n[nH]c5ncc(-c6ccccn6)cc45)cc23)cc1 [Compound 56, 3-(4-(4-Fluorophenyl)-1H-pyrrolo[2,3-c]pyridin-2-yl)-5-(pyridin-2-yl)-1H-pyrazolo[3,4-b]pyridine] | 5.74 µM | > 10 µM | 38.2% | 15.5% | > 10 µM | 25% | > 10 µM | – |
| CC(C)Nc1cncc(-c2cnc3[nH]nc(-c4cc5c(-c6ccncc6)cncc5[nH]4)c3c2)c1 [Compound 124, N-Isopropyl-5-(3-(4-(pyridin-4-yl)-1H-pyrrolo[2,3-c]pyridin-2-yl)-1H-pyrazolo[3,4-b]pyridin-5-yl)pyridin-3-amine] | > 10 µM | 2.4 µM | – | 15.5% | > 10 µM | – | 0.068 µM | 3.2% |
| CCNCc1cncc(-c2cnc3[nH]nc(-c4cc5c(N6CCCCC6)cncc5[nH]4)c3c2)c1 [Compound 174, N-((5-(3-(4-(Piperidin-1-yl)-1H-pyrrolo[2,3-c]pyridin-2-yl)-1H-pyrazolo [3,4-b]pyridin-5-yl)pyridin-3-yl)methyl)ethanamine] | 4.14 µM | 3.61 µM | – | – | 9.46 µM | – | 3.4 µM | – |
| CS(=O)(=O)NCc1cc(F)cc(-c2cncc3[nH]c(-c4n[nH]c5ncc(-c6cncc(CN7CCCC7)c6)cc45)cc23)c1 [Compound 490, N-(3-Fluoro-5-(2-(5-(5-(pyrrolidin-1-ylmethyl)pyridin-3-yl)-1H-pyrazolo [3,4-b]pyridin-3-yl)-1H-pyrrolo[2,3-c]pyridin-4-yl)benzyl)methanesulfonamide] | > 10 µM | > 10 µM | 16.2% | 24% | > 10 µM | – | 0.325 µM | 9.7% |
| c1ccc(-c2cnc3[nH]nc(-c4cc5ccncc5[nH]4)c3c2)nc1 [Compound 280, 5-(Pyridin-2-yl)-3-(1H-pyrrolo[2,3-c]pyridin-2-yl)-1H-pyrazolo[3,4-b]pyridine] | 1.15 µM | 1.59 µM | – | – | 3.87 µM | – | 3.75 µM | – |
| CCNCc1cncc(-c2cnc3[nH]nc(-c4cc5ccncc5[nH]4)c3c2)c1 [Compound 258, N-((5-(3-(1H-Pyrrolo[2,3-c]pyridin-2-yl)-1H-pyrazolo[3,4-b]pyridin-5-yl)pyridin-3-yl)methyl)ethanamine] | 3.32 µM | 7.43 µM | – | – | 9.34 µM | – | 1.55 µM | – |
| CC(C)(C)CC(=O)Nc1cncc(-c2cnc3[nH]nc(-c4cc5c(-c6ccoc6)cncc5[nH]4)c3c2)c1 [Compound 324, N-(5-(3-(4-(Furan-3-yl)-1H-pyrrolo[2,3-c]pyridin-2-yl)-1H-pyrazolo[3,4-b]pyridin-5-yl)pyridin-3-yl)-3,3-dimethylbutanamide] | 7 µM | 0.874 µM | – | – | 3.73 µM | – | 0.437 µM | – |
| CS(=O)(=O)NCc1cc(F)cc(-c2cncc3[nH]c(-c4n[nH]c5ncc(-c6cncc(NC(=O)C7CCCCC7)c6)cc45)cc23)c1 [Compound 499, N-(5-(3-(4-(3-Fluoro-5-(methylsulfonamidomethyl)phenyl)-1H-pyrrolo[2,3-c]pyridin-2-yl)-1H-pyrazolo[3,4-b]pyridin-5-yl)pyridin-3-yl)cyclohexanecarboxamide] | > 10 µM | > 10 µM | 28.5% | 12.3% | > 10 µM | 32.4% | > 10 µM | 9.9% |
| O=C(Nc1cncc(-c2cnc3[nH]nc(-c4cc5c(-c6ccc(F)cc6)cncc5[nH]4)c3c2)c1)C1CCCCC1 [Compound 51, N-(5-(3-(4-(4-Fluorophenyl)-1H-pyrrolo[2,3-c]pyridin-2-yl)-1H-pyrazolo [3,4-b]pyridin-5-yl)pyridin-3-yl)cyclohexanecarboxamide] | 1.44 µM | 1.18 µM | – | – | 2.94 µM | – | 3.47 µM | – |
| O=C(CC1CCNCC1)Nc1cncc(-c2cnc3[nH]nc(-c4cc5c(-c6cccnc6)cncc5[nH]4)c3c2)c1 [Compound 561, 2-(Piperidin-4-yl)-N-(5-(3-(4-(pyridin-3-yl)-1H-pyrrolo[2,3-c]pyridin-2-yl)-1H-pyrazolo[3,4-b]pyridin-5-yl)pyridin-3-yl)acetamide] | > 10 µM | 2.2 µM | – | 0% | > 10 µM | 14.5% | > 10 µM | 4.4% |
| Cn1cc(-c2cnc3[nH]nc(-c4cc5c(-c6cc(F)cc(CNS(C)(=O)=O)c6)cncc5[nH]4)c3c2)cn1 [Compound 764, N-(3-Fluoro-5-(2-(5-(1-methyl-1H-pyrazol-4-yl)-1H-pyrazolo[3,4-b]pyridin-3-yl)-1H-pyrrolo[2,3-c]pyridin-4-yl)benzyl)methanesulfonamide] | > 10 µM | 1.04 µM | – | – | 1.16 µM | – | 0.199 µM | 0% |
| CC(C)CC(=O)Nc1cncc(-c2cnc3[nH]nc(-c4cc5c(-c6ccc(F)cc6)cncc5[nH]4)c3c2)c1 [Compound 30, N-(5-(3-(4-(4-Fluorophenyl)-1H-pyrrolo[2,3-c]pyridin-2-yl)-1H-pyrazolo [3,4-b]pyridin-5-yl)pyridin-3-yl)-3-methylbutanamide] | 1.62 µM | 1.14 µM | – | – | 1.63 µM | 24.6% | > 10 µM | – |
| CC(C)(C)C(=O)Nc1cncc(-c2cnc3[nH]nc(-c4cc5c(-c6ccc(F)cc6)cncc5[nH]4)c3c2)c1 [Compound 36, N-(5-(3-(4-(4-Fluorophenyl)-1H-pyrrolo[2,3-c]pyridin-2-yl)-1H-pyrazolo [3,4-b]pyridin-5-yl)pyridin-3-yl)pivalamide] | 2.08 µM | 2.55 µM | – | 18.8% | > 10 µM | – | 0.127 µM | – |
| O=C(Nc1cncc(-c2cnc3[nH]nc(-c4cc5c(-c6ccncc6)cncc5[nH]4)c3c2)c1)C1CCCC1 [Compound 134, N-(5-(3-(4-(Pyridin-4-yl)-1H-pyrrolo[2,3-c]pyridin-2-yl)-1H-pyrazolo[3,4-b]pyridin-5-yl)pyridin-3-yl)cyclopentanecarboxamide] | > 10 µM | > 10 µM | 27.9% | 0% | > 10 µM | 30% | > 10 µM | 10.6% |
| CN(C)Cc1cncc(-c2cnc3[nH]nc(-c4cc5c(-c6ccoc6)cncc5[nH]4)c3c2)c1 [Compound 321, 1-(5-(3-(4-(Furan-3-yl)-1H-pyrrolo[2,3-c]pyridin-2-yl)-1H-pyrazolo[3,4-b]pyridin-5-yl)pyridin-3-yl)-N,N-dimethylmethanamine] | 6.29 µM | > 10 µM | 41.1% | 15.4% | > 10 µM | 29.2% | > 10 µM | – |
| O=C(Nc1cncc(-c2cnc3[nH]nc(-c4cc5c(-c6ccccc6F)cncc5[nH]4)c3c2)c1)C1CCCC1 [Compound 78, N-(5-(3-(4-(2-Fluorophenyl)-1H-pyrrolo[2,3-c]pyridin-2-yl)-1H-pyrazolo [3,4-b]pyridin-5-yl)pyridin-3-yl)cyclopentanecarboxamide] | 0.638 µM | 0.408 µM | – | – | 0.84 µM | – | 1.29 µM | – |
